Laboratory results taken from ChEMBL document CHEMBL3217737, “Discovery of a highly selective FLT3 kinase inhibitor from phenotypic cell viability profiling” (Medchemcomm, 2013).
Activity calls are given as the source filed them. No cut-off for these calls is given here.

Experiments:
[1] = target: Proto-oncogene tyrosine-protein kinase Src (Homo sapiens) (UniProt P12931); assay: Inhibition of c-Src (unknown origin) at 10 uM assessed as residual enzyme activity
[2] = target: CDK1/Cyclin A (Homo sapiens) (UniProt P06493+P20248); assay: Inhibition of CDK1/Cyclin A (unknown origin) at 10 uM assessed as residual enzyme activity; format: protein-complex assay
Sequence of CDK1/Cyclin A (Homo sapiens) (P06493 whole entry, looked up): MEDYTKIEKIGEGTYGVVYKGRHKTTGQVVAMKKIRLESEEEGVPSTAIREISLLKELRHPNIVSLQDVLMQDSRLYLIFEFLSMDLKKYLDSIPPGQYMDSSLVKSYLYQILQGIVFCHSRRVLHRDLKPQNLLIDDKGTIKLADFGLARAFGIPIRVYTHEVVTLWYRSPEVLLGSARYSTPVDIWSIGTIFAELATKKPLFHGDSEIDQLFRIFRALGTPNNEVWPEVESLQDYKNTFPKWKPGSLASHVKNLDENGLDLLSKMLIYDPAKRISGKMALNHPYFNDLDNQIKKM
Sequence of CDK1/Cyclin A (Homo sapiens) (P20248 whole entry, looked up): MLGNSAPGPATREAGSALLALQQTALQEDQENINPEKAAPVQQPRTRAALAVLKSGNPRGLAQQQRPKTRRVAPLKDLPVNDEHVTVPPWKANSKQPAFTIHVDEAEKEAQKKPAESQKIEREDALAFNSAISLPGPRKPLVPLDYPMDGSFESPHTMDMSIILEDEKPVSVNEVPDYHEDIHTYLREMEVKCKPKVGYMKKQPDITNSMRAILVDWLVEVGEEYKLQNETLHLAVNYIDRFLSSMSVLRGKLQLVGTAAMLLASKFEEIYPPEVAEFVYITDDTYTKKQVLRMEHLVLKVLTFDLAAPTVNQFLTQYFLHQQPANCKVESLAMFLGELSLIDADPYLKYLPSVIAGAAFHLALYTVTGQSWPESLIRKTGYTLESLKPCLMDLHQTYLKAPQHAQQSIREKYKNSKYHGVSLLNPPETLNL

[3] = target: Tyrosine-protein kinase ABL1 (Homo sapiens) (UniProt P00519); assay: Inhibition of ABL1 (unknown origin) at 10 uM assessed as residual enzyme activity
[4] = target: Mast/stem cell growth factor receptor Kit (Homo sapiens) (UniProt P10721); assay: Inhibition of c-KIT (unknown origin) at 10 uM assessed as residual enzyme activity
[5] = target: Receptor-type tyrosine-protein kinase FLT3 (Homo sapiens) (UniProt P36888); assay: Inhibition of FLT3 (unknown origin) at 10 uM assessed as residual enzyme activity
Sequence of Receptor-type tyrosine-protein kinase FLT3 (Homo sapiens) (P36888 whole entry): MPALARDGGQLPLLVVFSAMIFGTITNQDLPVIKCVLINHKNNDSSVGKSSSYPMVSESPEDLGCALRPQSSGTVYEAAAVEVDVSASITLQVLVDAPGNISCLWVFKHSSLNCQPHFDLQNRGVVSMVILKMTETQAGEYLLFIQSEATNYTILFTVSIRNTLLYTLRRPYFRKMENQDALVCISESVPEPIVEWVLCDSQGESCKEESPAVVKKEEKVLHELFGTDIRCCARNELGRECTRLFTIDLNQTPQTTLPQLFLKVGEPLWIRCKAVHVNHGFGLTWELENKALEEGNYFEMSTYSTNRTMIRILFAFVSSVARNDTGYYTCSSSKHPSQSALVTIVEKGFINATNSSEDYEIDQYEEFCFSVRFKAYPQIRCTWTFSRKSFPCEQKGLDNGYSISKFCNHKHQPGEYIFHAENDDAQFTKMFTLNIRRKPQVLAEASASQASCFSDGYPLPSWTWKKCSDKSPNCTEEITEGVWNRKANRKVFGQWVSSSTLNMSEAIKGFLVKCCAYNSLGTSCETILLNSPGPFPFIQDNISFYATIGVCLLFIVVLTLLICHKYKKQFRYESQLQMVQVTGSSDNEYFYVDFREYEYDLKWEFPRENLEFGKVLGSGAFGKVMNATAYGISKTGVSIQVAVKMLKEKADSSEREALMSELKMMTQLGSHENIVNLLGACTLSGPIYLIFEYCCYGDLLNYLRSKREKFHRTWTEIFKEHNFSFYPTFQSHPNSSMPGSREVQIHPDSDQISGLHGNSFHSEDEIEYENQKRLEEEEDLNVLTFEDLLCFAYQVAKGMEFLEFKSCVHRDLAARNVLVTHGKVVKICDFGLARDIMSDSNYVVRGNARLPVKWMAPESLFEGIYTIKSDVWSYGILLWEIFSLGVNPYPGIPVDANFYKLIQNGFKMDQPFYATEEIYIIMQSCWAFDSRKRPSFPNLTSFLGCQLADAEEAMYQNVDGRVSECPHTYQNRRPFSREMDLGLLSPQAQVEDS

[6] = target: Macrophage colony-stimulating factor 1 receptor (Homo sapiens) (UniProt P07333); assay: Inhibition of FMS (unknown origin) at 10 uM assessed as residual enzyme activity
Sequence of Macrophage colony-stimulating factor 1 receptor (Homo sapiens) (P07333 whole entry): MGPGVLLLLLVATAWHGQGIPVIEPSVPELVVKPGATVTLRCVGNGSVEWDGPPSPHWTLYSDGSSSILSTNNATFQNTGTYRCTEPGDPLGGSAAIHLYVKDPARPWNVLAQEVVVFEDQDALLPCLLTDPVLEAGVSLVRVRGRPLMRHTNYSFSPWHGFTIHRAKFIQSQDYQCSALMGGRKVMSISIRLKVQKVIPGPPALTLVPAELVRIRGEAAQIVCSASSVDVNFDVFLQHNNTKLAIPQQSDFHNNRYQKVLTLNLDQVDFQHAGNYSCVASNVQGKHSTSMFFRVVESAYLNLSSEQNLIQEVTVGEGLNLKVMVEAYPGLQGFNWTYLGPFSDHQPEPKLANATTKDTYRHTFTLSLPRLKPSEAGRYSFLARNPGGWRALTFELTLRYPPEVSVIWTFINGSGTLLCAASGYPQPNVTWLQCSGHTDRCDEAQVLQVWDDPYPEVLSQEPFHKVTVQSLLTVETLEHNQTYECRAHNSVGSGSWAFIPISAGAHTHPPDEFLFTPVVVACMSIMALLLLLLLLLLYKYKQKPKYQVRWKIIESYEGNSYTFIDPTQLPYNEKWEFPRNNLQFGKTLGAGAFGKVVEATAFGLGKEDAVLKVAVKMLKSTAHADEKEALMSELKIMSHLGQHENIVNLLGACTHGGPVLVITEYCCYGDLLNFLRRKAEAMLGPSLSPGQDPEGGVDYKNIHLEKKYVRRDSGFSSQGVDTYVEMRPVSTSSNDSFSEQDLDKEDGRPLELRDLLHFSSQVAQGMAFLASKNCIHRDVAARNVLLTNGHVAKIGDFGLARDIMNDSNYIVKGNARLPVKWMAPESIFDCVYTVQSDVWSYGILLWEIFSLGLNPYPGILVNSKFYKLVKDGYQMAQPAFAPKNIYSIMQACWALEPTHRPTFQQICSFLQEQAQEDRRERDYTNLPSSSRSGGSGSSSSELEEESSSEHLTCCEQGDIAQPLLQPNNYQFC

[7] = target: Receptor-type tyrosine-protein kinase FLT3 (Homo sapiens) (UniProt P36888); assay: Inhibition of FLT3 phosphorylation in human MV4-11 cells after 4 hrs by Western blot method; format: cell-based
[8] = tested on: HL-60; assay: Inhibition of ERK phosphorylation in human HL60 cells at 0.1 to 10 uM after 12 hrs by Western blot method; format: cell-based
[9] = target: Receptor-type tyrosine-protein kinase FLT3 (Homo sapiens) (UniProt P36888); assay: Inhibition of FLT3 in human MV4-11 cells assessed as reduction in ERK phosphorylation after 12 hrs by Western blot method; format: cell-based
[10] = tested on: MV4-11; assay: Induction of apoptosis in human MV4-11 cells assessed as increase in cleaved PARP level at 0.1 to 10 uM after 12 hrs by Western blot method; format: functional, cell-based
[11] = tested on: MV4-11; assay: Cytotoxicity against human MV4-11 cells assessed as cell viability at 1 uM after 24 hrs by WST1 assay; format: functional; details: MV4-11, 24 h, read-out: Activity
[12] = Cytotoxicity against rat L6 cells assessed as cell viability at 1 uM after 24 hrs by WST1 assay; format: cell-based; details: read-out: Activity
[13] = Cytotoxicity against mouse NIH/3T3 cells assessed as cell viability at 1 uM after 24 hrs by WST1 assay; format: cell-based, NIH3T3; details: read-out: Activity
[14] = target: Serine/threonine-protein kinase Nek4 (Homo sapiens) (UniProt P51957); assay: Inhibition of STK2 (unknown origin) at 10 uM assessed as residual enzyme activity
Sequence of Serine/threonine-protein kinase Nek4 (Homo sapiens) (P51957 whole entry, looked up): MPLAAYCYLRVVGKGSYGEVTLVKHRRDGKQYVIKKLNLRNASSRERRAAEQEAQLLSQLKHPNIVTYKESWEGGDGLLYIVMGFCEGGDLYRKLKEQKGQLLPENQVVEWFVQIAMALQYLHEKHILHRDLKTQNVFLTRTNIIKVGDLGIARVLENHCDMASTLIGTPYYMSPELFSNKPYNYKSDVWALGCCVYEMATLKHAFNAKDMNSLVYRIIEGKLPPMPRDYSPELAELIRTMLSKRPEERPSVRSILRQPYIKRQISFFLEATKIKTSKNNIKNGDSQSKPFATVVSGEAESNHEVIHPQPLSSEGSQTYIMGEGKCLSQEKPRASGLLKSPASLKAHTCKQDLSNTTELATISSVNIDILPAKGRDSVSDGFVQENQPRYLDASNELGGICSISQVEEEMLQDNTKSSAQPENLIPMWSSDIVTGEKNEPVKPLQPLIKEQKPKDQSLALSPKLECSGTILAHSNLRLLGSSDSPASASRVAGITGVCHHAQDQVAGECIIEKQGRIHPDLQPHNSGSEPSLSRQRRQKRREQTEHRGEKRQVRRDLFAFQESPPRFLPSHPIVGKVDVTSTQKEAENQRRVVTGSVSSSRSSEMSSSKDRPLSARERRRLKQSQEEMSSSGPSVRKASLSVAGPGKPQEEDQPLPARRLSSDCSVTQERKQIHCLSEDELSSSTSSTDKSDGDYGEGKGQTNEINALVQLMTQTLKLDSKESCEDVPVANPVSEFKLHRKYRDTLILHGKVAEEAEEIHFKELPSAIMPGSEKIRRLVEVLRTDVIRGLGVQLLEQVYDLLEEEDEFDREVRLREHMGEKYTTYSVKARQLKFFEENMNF

[15] = target: Serine/threonine-protein kinase PAK 1 (Homo sapiens) (UniProt Q13153); assay: Inhibition of PAK1 (unknown origin) at 10 uM assessed as residual enzyme activity
Sequence of Serine/threonine-protein kinase PAK 1 (Homo sapiens) (Q13153 whole entry): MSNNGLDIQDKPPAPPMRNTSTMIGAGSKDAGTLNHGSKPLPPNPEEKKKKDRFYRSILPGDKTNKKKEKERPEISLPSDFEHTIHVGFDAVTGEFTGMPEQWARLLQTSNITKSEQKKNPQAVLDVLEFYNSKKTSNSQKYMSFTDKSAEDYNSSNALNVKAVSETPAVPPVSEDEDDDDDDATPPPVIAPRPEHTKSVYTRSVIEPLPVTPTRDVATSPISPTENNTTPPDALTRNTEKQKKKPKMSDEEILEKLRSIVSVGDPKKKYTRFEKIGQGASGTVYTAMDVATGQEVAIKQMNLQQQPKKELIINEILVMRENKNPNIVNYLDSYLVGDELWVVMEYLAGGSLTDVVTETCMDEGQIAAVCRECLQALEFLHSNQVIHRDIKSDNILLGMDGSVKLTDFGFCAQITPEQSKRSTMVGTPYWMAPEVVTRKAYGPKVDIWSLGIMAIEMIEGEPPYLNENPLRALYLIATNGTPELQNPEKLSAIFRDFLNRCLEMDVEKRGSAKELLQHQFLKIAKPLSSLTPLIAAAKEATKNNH

[16] = target: Ribosomal protein S6 kinase beta-1 (Homo sapiens) (UniProt P23443); assay: Inhibition of p70S6K (unknown origin) at 10 uM assessed as residual enzyme activity
[17] = target: Mitogen-activated protein kinase 14 (Homo sapiens) (UniProt Q16539); assay: Inhibition of P38alpha (unknown origin) at 10 uM assessed as residual enzyme activity
[18] = target: Dual specificity mitogen-activated protein kinase kinase 1 (Homo sapiens) (UniProt Q02750); assay: Inhibition of MEK1 (unknown origin) at 10 uM assessed as residual enzyme activity
Sequence of Dual specificity mitogen-activated protein kinase kinase 1 (Homo sapiens) (Q02750 whole entry): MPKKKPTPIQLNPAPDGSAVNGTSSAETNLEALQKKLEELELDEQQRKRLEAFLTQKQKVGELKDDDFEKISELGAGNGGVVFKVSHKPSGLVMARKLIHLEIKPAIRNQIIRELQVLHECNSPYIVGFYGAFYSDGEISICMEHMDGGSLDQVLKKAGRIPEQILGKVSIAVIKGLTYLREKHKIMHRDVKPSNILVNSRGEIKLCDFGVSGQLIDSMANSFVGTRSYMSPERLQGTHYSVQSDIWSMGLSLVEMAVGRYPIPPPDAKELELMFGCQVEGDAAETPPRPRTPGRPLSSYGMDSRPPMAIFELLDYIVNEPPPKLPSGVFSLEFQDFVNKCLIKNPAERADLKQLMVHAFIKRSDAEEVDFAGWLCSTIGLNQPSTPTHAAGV

[19] = target: Serine/threonine-protein kinase STK11 (Homo sapiens) (UniProt Q15831); assay: Inhibition of LKB1 (unknown origin) at 10 uM assessed as residual enzyme activity
[20] = target: Epidermal growth factor receptor (Homo sapiens) (UniProt P00533); assay: Inhibition of EGFR (unknown origin) at 10 uM assessed as residual enzyme activity

Sequence of Proto-oncogene tyrosine-protein kinase Src (Homo sapiens) (P12931 2-536 limits assumed): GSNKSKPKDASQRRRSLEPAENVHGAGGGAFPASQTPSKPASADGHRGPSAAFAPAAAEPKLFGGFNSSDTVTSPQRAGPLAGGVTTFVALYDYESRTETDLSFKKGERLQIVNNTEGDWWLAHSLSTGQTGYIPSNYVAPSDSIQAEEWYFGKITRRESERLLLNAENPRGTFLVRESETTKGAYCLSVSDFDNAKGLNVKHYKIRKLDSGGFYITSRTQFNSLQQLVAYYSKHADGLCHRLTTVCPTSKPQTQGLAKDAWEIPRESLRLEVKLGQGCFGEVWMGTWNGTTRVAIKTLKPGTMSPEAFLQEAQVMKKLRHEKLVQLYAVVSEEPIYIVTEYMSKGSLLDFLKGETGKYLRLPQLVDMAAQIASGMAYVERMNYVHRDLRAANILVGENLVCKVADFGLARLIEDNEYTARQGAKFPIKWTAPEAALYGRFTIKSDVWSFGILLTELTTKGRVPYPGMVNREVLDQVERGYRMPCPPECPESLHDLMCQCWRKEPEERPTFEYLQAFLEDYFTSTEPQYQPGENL

Activity [1]: 78.7% | Activity [2]: 97.4% | Activity [3]: 88.9% | Activity [4]: 99.2% | Activity [5]: 9.5% | Activity [6]: 102% | inhibition [7]: Active | inhibition [9]: Dose-dependent effect | Activity [14]: 85.8% | Activity [15]: 98.9% | Activity [16]: 94.1% | Activity [17]: 110% | Activity [18]: 102% | Activity [19]: 101% | Activity [20]: 91.2%
Compound: COc1ccc(-c2n[nH]c3ncc(-c4ccc(Cl)cc4N)cc23)cc1
inhibition [8]: inactive | Activity [10]: Dose-dependent effect | viability at 1 µM [11]: 30% | viability at 24 h, 1 µM [12]: 107% | viability at 24 h, 1 µM [13]: 106%
